System: moderate-to-severe chronic spontaneous urticaria (CSU)
Test: Phase 2 CSU study: urticaria activity score over 7 days (UAS7)
Type: in vivo, human
Conditions: Omalizumab-naïve
Description: The study comprises a 12 week, randomized, double-blind, placebo-controlled, multi-center, dose-ranging efficacy and safety phase, followed by a 40 week open label extension (OLE) phase (see FIG. 1). The study consists of three phases and an optional OLE phase. […] Clinically, CSU is characterized by the spontaneous and recurrent appearance of pruritic hives. The proposed primary endpoints were the UAS7 at Week 12 in EU and EU reference countries and the ISS7 in the US. Regardless of where a participant was from, all assessments were the same. The UAS7 score is a composite score containing both the HSS7 and the ISS7. This allowed a global assessment of the two key components of urticaria: hives and itch. […] The UAS is a validated PRO measure. […] The daily UAS scores range from 0 to 6 point/day. […] Patients were to complete the UAS using the e-diary. […] The following secondary endpoints were to be analyzed using the same approach as for the primary endpoint: • Change from baseline in UAS7 at Week 4 • Change from baseline in UAS7 at Week 12 (for US and US reference countries) • Change from baseline in ISS7 at Week 12 (except US and US reference countries) • Change from baseline in HSS7 at Week 12 The following responder secondary endpoints were to be analyzed using the Cochran-Mantel-Haenszel test adjusted by region: • Proportion of participants with UAS7<6 at Week 12 • Proportion of participants with UAS7=0 at Week 12 Participants who received selected prohibited medications and/or rescue medications were to be considered as non-responders for time points after the medication usage. For other participants, all available data including those collected during the off-treatment period were to be used to determine the responder/non-responder status. Missing data were to be considered as non-responders.

CC(C)(C=C(C#N)C(=O)N1CCC[C@@H](n2nc(-c3ccc(Oc4ccccc4)cc3F)c3c(N)ncnc32)C1)N1CCN(C2COC2)CC1 [rilzabrutinib, (R)-2-[3-[4-amino-3-(2-fluoro-4-phenoxy-phenyl)pyrazolo[3,4-d]pyrimidin-1-yl]piperidine-1-carbonyl]-4-methyl-4-[4-(oxetan-3-yl)piperazin-1-yl]pent-2-enenitrile]
Imputed non-responder n (%), UAS7 ≤6 (400 mg QPM, Week 8): 7 (18.9) n (%) | Non-responder n (%), UAS7 = 0 (400 mg QPM, Week 8): 36 (97.3) n (%) | Non-responder n (%), UAS7 ≤6 (400 mg QPM, Week 8): 34 (91.9) n (%) | OR for rilzabrutinib vs. placebo, UAS7 = 0 (400 mg QPM, Week 8): 0.477 | RRD (%) for rilzabrutinib vs. placebo, UAS7 = 0 (400 mg QPM, Week 8): −2.7 % | RRD (%) for rilzabrutinib vs. placebo, UAS7 ≤6 (400 mg QPM, Week 8): −8.4% | Responder n (%), UAS7 = 0 (400 mg QPM, Week 8): 1 (2.7) n (%) | Responder n (%), UAS7 ≤6 (400 mg QPM, Week 8): 3 (8.1) n (%) | Imputed non-responder n (%), UAS7 = 0 (400 mg QPM, Week 9): 6 (16.2) n (%) | Imputed non-responder n (%), UAS7 ≤6 (400 mg QPM, Week 9): 6 (16.2) n (%) | Non-responder n (%), UAS7 = 0 (400 mg QPM, Week 9): 36 (97.3) n (%) | Non-responder n (%), UAS7 ≤6 (400 mg QPM, Week 9): 34 (91.9) n (%) | OR for rilzabrutinib vs. placebo, UAS7 = 0 (400 mg QPM, Week 9): 0.305 | OR for rilzabrutinib vs. placebo, UAS7 ≤6 (400 mg QPM, Week 9): 0.715 | RRD (%) for rilzabrutinib vs. placebo, UAS7 = 0 (400 mg QPM, Week 9): −5.6 % | RRD (%) for rilzabrutinib vs. placebo, UAS7 ≤6 (400 mg QPM, Week 9): −3.0% | Responder n (%), UAS7 = 0 (400 mg QPM, Week 9): 1 (2.7) n (%) | Responder n (%), UAS7 ≤6 (400 mg QPM, Week 9): 3 (8.1) n (%) | Imputed non-responder n (%), UAS7 = 0 (400 mg QPM, Week 10): 6 (16.2) n (%) | Imputed non-responder n (%), UAS7 ≤6 (400 mg QPM, Week 10): 6 (16.2) n (%) | Non-responder n (%), UAS7 = 0 (400 mg QPM, Week 10): 36 (97.3) n (%) | Non-responder n (%), UAS7 ≤6 (400 mg QPM, Week 10): 35 (94.6) n (%) | OR for rilzabrutinib vs. placebo, UAS7 = 0 (400 mg QPM, Week 10): 0.219 | OR for rilzabrutinib vs. placebo, UAS7 ≤6 (400 mg QPM, Week 10): 0.357 | RRD (%) for rilzabrutinib vs. placebo, UAS7 = 0 (400 mg QPM, Week 10): −8.7 % | RRD (%) for rilzabrutinib vs. placebo, UAS7 ≤6 (400 mg QPM, Week 10): −8.6% | Responder n (%), UAS7 = 0 (400 mg QPM, Week 10): 1 (2.7) n (%) | Responder n (%), UAS7 ≤6 (400 mg QPM, Week 10): 2 (5.4) n (%) | Imputed non-responder n (%), UAS7 = 0 (400 mg QPM, Week 11): 7 (18.9) n (%) | Imputed non-responder n (%), UAS7 ≤6 (400 mg QPM, Week 11): 7 (18.9) n (%) | Non-responder n (%), UAS7 = 0 (400 mg QPM, Week 11): 35 (94.6) n (%) | Non-responder n (%), UAS7 ≤6 (400 mg QPM, Week 11): 34 (91.9) n (%) | OR for rilzabrutinib vs. placebo, UAS7 = 0 (400 mg QPM, Week 11): 0.986 | OR for rilzabrutinib vs. placebo, UAS7 ≤6 (400 mg QPM, Week 11): 0.456 | RRD (%) for rilzabrutinib vs. placebo, UAS7 ≤6 (400 mg QPM, Week 11): −8.5% | Responder n (%), UAS7 = 0 (400 mg QPM, Week 11): 2 (5.4) n (%) | Responder n (%), UAS7 ≤6 (400 mg QPM, Week 11): 3 (8.1) n (%) | Imputed non-responder n (%), UAS7 = 0 (400 mg QPM, Week 12): 10 (27.0) n (%) | Imputed non-responder n (%), UAS7 ≤6 (400 mg QPM, Week 12): 10 (27.0) n (%) | Non-responder n (%), UAS7 = 0 (400 mg QPM, Week 12): 36 (97.3) n (%) | Non-responder n (%), UAS7 ≤6 (400 mg QPM, Week 12): 35 (94.6) n (%) | OR for rilzabrutinib vs. placebo, UAS7 = 0 (400 mg QPM, Week 12): 0.219 | OR for rilzabrutinib vs. placebo, UAS7 ≤6 (400 mg QPM, Week 12): 0.438 | RRD (%) for rilzabrutinib vs. placebo, UAS7 = 0 (400 mg QPM, Week 12): −8.7 % | RRD (%) for rilzabrutinib vs. placebo, UAS7 ≤6 (400 mg QPM, Week 12): −6.1% | Responder n (%), UAS7 = 0 (400 mg QPM, Week 12): 1 (2.7) n (%) | Responder n (%), UAS7 ≤6 (400 mg QPM, Week 12): 2 (5.4) n (%) | Imputed non-responder n (%), UAS7 = 0 (400 mg TID, Week 1): 0 n (%) | Imputed non-responder n (%), UAS7 ≤6 (400 mg TID, Week 1): 0 n (%) | Non-responder n (%), UAS7 = 0 (400 mg TID, Week 1): 34 (97.1) n (%) | Non-responder n (%), UAS7 ≤6 (400 mg TID, Week 1): 27 (77.1) n (%) | OR for rilzabrutinib vs. placebo, UAS7 ≤6 (400 mg TID, Week 1): 4.809 | RRD (%) for rilzabrutinib vs. placebo, UAS7 = 0 (400 mg TID, Week 1): 0.2 % | RRD (%) for rilzabrutinib vs. placebo, UAS7 ≤6 (400 mg TID, Week 1): 15.9 % | Responder n (%), UAS7 = 0 (400 mg TID, Week 1): 1 (2.9) n (%) | Responder n (%), UAS7 ≤6 (400 mg TID, Week 1): 8 (22.9) n (%) | Imputed non-responder n (%), UAS7 = 0 (400 mg TID, Week 2): 0 n (%) | Imputed non-responder n (%), UAS7 ≤6 (400 mg TID, Week 2): 0 n (%) | Non-responder n (%), UAS7 = 0 (400 mg TID, Week 2): 31 (88.6) n (%) | Non-responder n (%), UAS7 ≤6 (400 mg TID, Week 2): 27 (77.1) n (%) | OR for rilzabrutinib vs. placebo, UAS7 = 0 (400 mg TID, Week 2): 4.736 | OR for rilzabrutinib vs. placebo, UAS7 ≤6 (400 mg TID, Week 2): 4.455 | RRD (%) for rilzabrutinib vs. placebo, UAS7 = 0 (400 mg TID, Week 2): 8.3 % | RRD (%) for rilzabrutinib vs. placebo, UAS7 ≤6 (400 mg TID, Week 2): 15.3 % | Responder n (%), UAS7 = 0 (400 mg TID, Week 2): 4 (11.4) n (%) | Responder n (%), UAS7 ≤6 (400 mg TID, Week 2): 8 (22.9) n (%)

Reference: US20260256792A1, “TREATMENT OF CHRONIC SPONTANEOUS URTICARIA BY ADMINISTERING (R)-2-[3-[4-AMINO-3-(2-FLUORO-4-PHENOXY-PHENYL)PYRAZOLO[3,4-D]PYRIMIDIN-1-YL]PIPERIDINE-1-CARBONYL]-4-METHYL-4-[4-(OXETAN-3-YL)PIPERAZIN-1-YL]PENT-2-ENENITRILE” (priority 2023, published 2026)
